Measured values reported in paper PMC7765920 (Molecules, 2020).
Like-named read-outs stand apart in the source and are kept apart here.

Assays:
human recombinant MAO-A = molecular target: T1, human recombinant MAO-A (Homo sapiens, UniProt P21397); experiment: MAO-GLO luminescence assay of MAO-A catalytic activity; type: biochemical; settings: read-out: MAO-A residual activity
T1 sequence (P21397 1-527): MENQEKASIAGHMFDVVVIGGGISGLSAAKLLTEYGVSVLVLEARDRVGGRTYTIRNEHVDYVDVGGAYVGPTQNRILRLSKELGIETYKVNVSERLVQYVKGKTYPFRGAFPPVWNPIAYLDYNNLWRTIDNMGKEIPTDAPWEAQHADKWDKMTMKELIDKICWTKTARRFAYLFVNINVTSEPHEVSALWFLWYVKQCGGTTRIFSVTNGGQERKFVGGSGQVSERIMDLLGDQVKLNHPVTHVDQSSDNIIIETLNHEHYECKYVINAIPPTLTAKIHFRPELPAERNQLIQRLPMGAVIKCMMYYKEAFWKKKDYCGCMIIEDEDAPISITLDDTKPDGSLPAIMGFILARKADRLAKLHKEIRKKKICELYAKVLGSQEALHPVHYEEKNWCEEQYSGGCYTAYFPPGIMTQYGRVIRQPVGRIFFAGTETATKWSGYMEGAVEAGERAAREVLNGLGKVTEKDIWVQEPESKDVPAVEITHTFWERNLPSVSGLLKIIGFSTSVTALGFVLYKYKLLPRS
Description: (§1) Optimization of the compounds, however, aimed predominantly at elimination of MAO-A-inhibitory activity while keeping DYRK1A inhibitory potency, and not at achieving high selectivity for DYRK1A over CLK1. The tests were performed as described by us before in detail. Due to the very large number of test compounds (more than 60), a first screening was performed at a single inhibitor concentration of 1 µM.
(§2) Inhibitors were dissolved in DMSO at a concentration of 10 mM and stored at […]. Working solutions were prepared to achieve a final concentration of 1 µM in the enzyme assays.
Catalytic activity of monoamine oxidase A (MAO-A) was measured by using the luminescence-based MAO-GLO^TM Assay from Promega. Recombinant MAO-A converts a luminogenic MAO substrate into luciferin, which is, in turn, luminometrically detected in a luciferase reaction. The amount of light produced is directly proportional to MAO activity. […] Inhibitory effects of the tested compounds were calculated relative to the activity of control reactions that were run in the absence of inhibitors.

[1] = molecular target: T2, GST-DYRK1A-ΔC (amino acids 1–499 of rat DYRK1A) (Rattus norvegicus, UniProt Q63470); experiment: Kinase-GLO luminescent assay of DYRK1A catalytic activity; type: biochemical; settings: read-out: DYRK1A residual activity
T2 construct: containing amino acids 1–499 of rat DYRK1A; made in house; host or cells: E. coli
Description: as §1, §2
(§3) Recombinant kinases were purified from E. coli as GST (glutathione S-transferase) fusion constructs by affinity adsorption to glutathione-Sepharose. […] Catalytic activity of the kinases was measured with the help of the Kinase-GLO^TM Luminescent Assay from Promega. Assays were performed in a total volume of 10 μL in kinase buffer (25 mM Hepes pH 7.4, 0.5 mM DTT, 5 mM MgCl2, 5 μM ATP) with appropriate peptide substrates (20 μM DYRKtide for the DYRKs and 100 μM DYRKtide for HIPK2, […]; or 100 μM RS peptide for CLK1, […]). Kinases amounts in the assays were adjusted so that approximately 90% of the ATP in the assay was consumed in control samples without inhibitor. Kinase reactions were incubated at room temperature for 30 min before 10 μL Kinase-GLO reagent was added for luminometric measurement of the ATP that was not consumed by the kinases. After incubation at room temperature for an additional 10 min, luminescence was recorded for 1 s (Berthold Orion Microplate Luminometer). ATP consumption in the control samples without inhibitor was set as 100% catalytic activity, and the inhibitory effects of the test compounds were calculated relative to this value.

[2] = molecular target: T3, GST-CLK1cat (amino acids 141–484 of human CLK1) (Homo sapiens, UniProt P49759); experiment: Kinase-GLO luminescent assay of CLK1 catalytic activity; type: biochemical; settings: read-out: CLK1 residual activity
T3 construct: containing amino acids 141–484 of human CLK1; made in house; host or cells: E. coli
T3 sequence (P49759 141-484): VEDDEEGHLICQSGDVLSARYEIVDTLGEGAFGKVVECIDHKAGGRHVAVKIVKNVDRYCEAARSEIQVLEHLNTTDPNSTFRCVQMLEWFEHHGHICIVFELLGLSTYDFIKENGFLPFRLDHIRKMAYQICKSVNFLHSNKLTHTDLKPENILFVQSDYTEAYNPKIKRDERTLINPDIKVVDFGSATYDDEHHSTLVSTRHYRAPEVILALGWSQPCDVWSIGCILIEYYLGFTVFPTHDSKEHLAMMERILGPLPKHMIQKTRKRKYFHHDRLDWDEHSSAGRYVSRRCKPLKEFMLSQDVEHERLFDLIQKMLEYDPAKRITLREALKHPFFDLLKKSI
Description: as §1, §2, §3

[3] = system: GST-DYRK1A-ΔC (amino acids 1–499 of rat DYRK1A); experiment: Kinase-GLO luminescent assay of DYRK1A catalytic activity; type: biochemical; settings: ratio of the MAO-A and DYRK1A IC50 values of Table 2
[4] = 1 µM inhibitor concentration, residual activity relative to control without inhibitor

Structure (SMILES)	remaining activity at 1 µM (human recombinant MAO-A; [4]) [%]	remaining activity at 1 µM [1, 4] [%]	remaining activity at 1 µM [2, 4] [%]	melting point [°C]	Selectivity for DYRK1A over MAO-A [3]	remaining activity at 1 µM (human recombinant MAO-A) [%]	remaining activity at 1 µM [1] [%]	remaining activity at 1 µM [2] [%]
CCOC(=O)CCn1c2cc(OC)ccc2c2ccnc(C)c21 [AnnH32, Ethyl 3-(7-Methoxy-1-methyl-9H-pyrido[3,4-b]indol-9-yl)propanoate]	–	–	–	–	–	105	12	44
C#CCn1c2cc(OC)ccc2c2ccnc(C)c21 [AnnH44, 7-Methoxy-1-methyl-9-(prop-2-yn-1-yl)-9H-pyrido[3,4-b]indole]	22	2	17	–	–	–	–	–
CCc1nccc2c1[nH]c1cc(OC)ccc12 [AnnH89, 1-Ethyl-7-methoxy-9H-pyrido[3,4-b]indole]	34	37	7	–	–	–	–	–
Cc1nccc2c3ccc(Cl)c(Cl)c3n(CCCN(C)C)c12 [AnnH71, 3-(7,8-Dichloro-1-methyl-9H-pyrido[3,4-b]-9-yl)-N,N-dimethylpropan-1-amine]	110	47	90	126 to 128	–	–	–	–
COc1ccc2c3ccnc(C)c3n(CCN3CCOCC3)c2c1 [AnnH53, 4-[2-(7-Methoxy-1-methyl-9H-pyrido[3,4-b]indol-9-yl)-ethyl]morpholine]	70	33	77	183	–	–	–	–
CCCCn1c2c(C)nccc2c2ccc(OC)c(Cl)c21 [AnnH11, 9-Butyl-8-chloro-7-methoxy-1-methyl-9H-pyrido[3,4-b]indole]	4	104	60	–	–	–	–	–
Cc1nccc2c1C(=O)c1cc(O)ccc1-2 [AnnHT6, 7-Hydroxy-1-methyl-9H-indeno-[2,1-c]pyridin-9-one]	46	37	27	–	–	–	–	–
Cc1nccc2c1[nH]c1c(Cl)c(Cl)ccc12 [AnnH63, 7,8-Dichloro-1-methyl-9H-pyrido[3,4-b]indole]	32	3	26	–	–	–	–	–
Cc1nccc2c3ccc(Cl)c(Cl)c3n(CC#N)c12 [AnnH69, 2-(7,8-Dichloro-1-methyl-9H-pyrido[3,4-b]indol-9-yl)acetonitrile]	–	–	–	–	–	101	17	33
N#CCn1c2c(Br)nccc2c2ccc(Cl)c(Cl)c21 [AnnH79, 2-(1-Bromo-7,8-dichloro-9H-pyrido[3,4-b]indol-9-yl)-acetonitrile]	143	93	88	–	–	–	–	–
Clc1ccc2c([nH]c3c(Br)nccc32)c1Cl [AnnH52, 1-Bromo-7,8-dichloro-9H-pyrido[3,4-b]indole]	118	36	45	–	–	–	–	–
C#CCn1c2c(Br)nccc2c2ccc(Cl)c(Cl)c21 [AnnH80, 1-Bromo-7,8-dichloro-9-(prop-2-yn-1-yl)-9H-pyrido[3,4-b]indole]	123	95	84	–	–	–	–	–
CCCCn1c2cc(OC)c(Cl)cc2c2ccnc(C)c21 [AnnH14, 9-Butyl-6-chloro-7-methoxy-1-methyl-9H-pyrido[3,4-b]indole]	56	94	62	–	–	–	–	–
COc1ccc2c3ccnc(C)c3n(CC=C(C)C)c2c1 [AnnH73, 7-Methoxy-1-methyl-9-(3-methylbut-2-en-1-yl)-9H-pyrido[3,4-b]indole]	–	–	–	–	–	52	6	2

The next lines start with results.

remaining activity at 1 µM (human recombinant MAO-A; [4]) [%]	remaining activity at 1 µM [1, 4] [%]	remaining activity at 1 µM [2, 4] [%]	melting point [°C]	Selectivity for DYRK1A over MAO-A [3]	Structure (SMILES)	remaining activity at 1 µM (human recombinant MAO-A) [%]	remaining activity at 1 µM [1] [%]	remaining activity at 1 µM [2] [%]
123	63	86	86 to 87	–	COc1ccc2c3ccnc(Cl)c3n(CCCN(C)C)c2c1 [AnnH77, 3-(1-Chloro-7-methoxy-9H-pyrido[3,4-b]indol-9-yl)-N,N-dimethylpropan-1-amine]	–	–	–
24	64	87	–	–	CNC(=O)Cn1c2cc(OC)ccc2c2ccnc(C)c21 [AnnH30, 2-(7-Methoxy-1-methyl-9H-pyrido[3,4-b]indol-9-yl)-N-methylacetamide]	–	–	–
65	35	7	–	–	COc1ccc2c(c1)/C(=C\C#N)c1c-2ccnc1C [AnnHT5, (2E)-(7-Methoxy-1-methyl-9H-indeno[2,1c]pyridin-9-ylidene)ethanenitrile]	–	–	–
128	100	80	–	–	COc1ccc(Cn2c3cc(OC)ccc3c3ccnc(C)c32)cc1 [AnnH35, 7-Methoxy-9-(4-methoxybenzyl)-1-methyl-9H-pyrido[3,4-b]indole]	–	–	–
127	12	31	–	–	COc1ccc2c3ccnc(C)c3n(CCCc3ccccc3)c2c1 [AnnH38, 7-Methoxy-1-methyl-9-(3-phenylpropyl)-9H-pyrido[3,4-b]indole]	–	–	–
15	55	54	–	–	COc1ccc2c(c1)C(=O)c1c-2ccnc1C [AnnHT2, 7-Methoxy-1-methyl-9H-indeno-[2,1-c]pyridin-9-one]	–	–	–
101	30	45	–	–	CCOC(=O)Cn1c2cc(OC)ccc2c2ccnc(C)c21 [AnnH12, Ethyl 2-(7-methoxy-1-methyl-9H-pyrido[3,4-b]indol-9-yl)acetate]	–	–	–
102	5	10	–	26	COc1ccc2c3ccnc(C)c3n(C(C)C#N)c2c1 (racemic) [AnnH43, (±)-2-(7-Methoxy-1-methyl-9H-pyrido[3,4-b]indol-9-yl)propanenitrile]	–	–	–
30	40	37	–	–	COc1ccc2c3ccnc(C)c3n(CCOc3ccccc3)c2c1 [AnnH40, 7-Methoxy-1-methyl-9-(2-phenoxyethyl)-9H-pyrido[3,4-b]indole]	–	–	–
67	48	85	–	–	COc1ccc2c3ccnc(C)c3n(CCN3CCCC3)c2c1 [AnnH55, 7-Methoxy-1-methyl-9-[2-(pyrrolidin-1-yl)ethyl]-9H-pyrido[3,4-b]indole]	–	–	–
34	59	76	–	–	COc1ccc2c(c1)C(O)c1c-2ccnc1C (racemic) [AnnHT3, (±)-7-Methoxy-1-methyl-9H-indeno-[2,1-c]pyridin-9-ol]	–	–	–
100	71	97	–	–	COc1ccc2c(c1)[nH]c1c(C)cccc12 [AnnHOG3, 7-Methoxy-1-methyl-9H-carbazole]	–	–	–
100	27	58	–	–	COc1ccc2c(c1)[nH]c1c(/C=C/c3ccccc3)nccc12 [AnnH18]	–	–	–
